The values below come from patent publication US20140142113A1 (priority 2012, published 2014).

In series [1] the test system is collagen-induced arthritis. In words: Collagen induced arthritis (CIA) in mice. The format is in vivo. Particulars: DBA/1 mice, 30 mg/kg i.p. once daily. On the procedure: Control mice were treated with saline (circles). Data are the mean arthritis paw thickness, assessed using a calliper in the days following primary immunization and boost.
After the end of treatment, the inhibitory effect was maintained for a period of 2-3 days after which signs began to re-emerge.
Treatment of rheumatoid arthritis using Collagen Induced Arthritis as a model Collagen-induced arthritis studies. CIA in DBA/1 mice was induced by injecting DBA/1 mice with bovine type Il collagen (CII) emulsified in CFA1 followed by boosting 21 days later with CII emulsified in incomplete Freund's adjuvant (IFA). […] 30 mg/kg was delivered by i.p. injection once daily, starting following the development of clinical arthritis in treatment experiments. Animals were monitored daily following boost of arthritis, following the emergence of clear signs of disease observed on two consecutive days, animals were allocated randomly to treatment groups. Signs monitored included weight loss, paw thickness, and observed clinical score. Scoring is according to the presence of inflamed joints: 1 point for an inflamed digit, 1 point for a inflamed metatarsus, and 1 point for an inflamed joint above the metatarsus.

Series [2] relates to experimental autoimmune encephalomyelitis. In words: Experimental autoimmune encephalomyelitis (EAE) in mice. Particulars: C57B/6 mice, 15 mg/kg i.p. once daily from EAE induction. The format is in vivo. The procedure:
Control mice were treated with PEG/saline (triangles). […] Data are the mean plotted with the standard error of the mean.
EAE is a widely used animal model for multiple sclerosis (MS).
EAE was induced in C57B/6 mice by subcutaneous immunization with 100 ug/mouse myelin oligodendrocyte glycoprotein (MOG) peptide 35-55 emulsified in compete Freund's adjuvant (CFA) containing 2 mg/ml heat-killed mycobacterium tuberculosis H37Ra (Hooke Laboratories). As part of the induction protocol, mice were also injected intraperitoneally on the day of immunization and 48 hours later with 0.1 ml of 4 [mu]g/mL Bordetella pertusis toxin. Severity of EAE was determined daily based on a standard scoring system: 1, tail weakness or paralysis; 2, hind leg weakness; 3, hind limb paralysis; 4, forelimb weakness; and 5, moribund animals or death.

Series [3] can be described thus: Pharmacokinetics of Compound 1 in mice, oral or intravenous. Particulars: C57BLK6 mice. The format is in vivo. The procedure: The cellulose formulation was administered to C57BLK6 mice orally. The serum suspension/solution was administered intravenously. […] The results are recorded in FIG. 5.
A further series has as its target T1, hA3 adenosine receptor (Homo sapiens, UniProt P0DMS8).
T1 sequence (P0DMS8 1-318): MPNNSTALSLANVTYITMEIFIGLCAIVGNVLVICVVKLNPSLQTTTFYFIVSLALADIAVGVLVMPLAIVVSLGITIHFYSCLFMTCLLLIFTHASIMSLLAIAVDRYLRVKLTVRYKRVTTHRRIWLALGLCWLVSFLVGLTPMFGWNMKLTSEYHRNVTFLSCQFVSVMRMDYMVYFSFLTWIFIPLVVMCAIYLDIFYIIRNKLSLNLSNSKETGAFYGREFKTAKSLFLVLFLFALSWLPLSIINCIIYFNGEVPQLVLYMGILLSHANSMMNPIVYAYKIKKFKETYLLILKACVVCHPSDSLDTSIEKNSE
In words: Adenosine receptor selectivity, hA3. Type of series: binding. Particulars: read-out: hA3 Ki ± SEM. The source says: (§1) The selectivity of these substances at various adenosine receptors is illustrated as follows: […]

The target in a further series is T2, hA2B adenosine receptor (Homo sapiens, UniProt P29275).
T2 sequence (P29275 1-332): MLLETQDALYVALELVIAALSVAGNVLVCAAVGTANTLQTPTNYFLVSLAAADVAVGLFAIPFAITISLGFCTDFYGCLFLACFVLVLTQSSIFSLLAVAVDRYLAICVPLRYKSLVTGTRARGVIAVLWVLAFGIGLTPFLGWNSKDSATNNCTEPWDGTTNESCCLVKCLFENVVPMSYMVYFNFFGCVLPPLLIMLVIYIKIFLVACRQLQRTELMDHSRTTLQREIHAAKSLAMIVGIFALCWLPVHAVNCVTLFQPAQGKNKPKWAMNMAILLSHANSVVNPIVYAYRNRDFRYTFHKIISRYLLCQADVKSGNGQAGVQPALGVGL
In words: Adenosine receptor selectivity, hA2B. The format is binding. Particulars: read-out: hA2B IC50 ± SEM.
Text: as §1

The target of the next series is rA2A adenosine receptor (Rattus norvegicus, UniProt P30543). Put plainly: Adenosine receptor selectivity, rA2A. Type of series: binding. Particulars: read-out: rA2A Ki ± SEM.
Chain of rA2A adenosine receptor (P30543 whole entry): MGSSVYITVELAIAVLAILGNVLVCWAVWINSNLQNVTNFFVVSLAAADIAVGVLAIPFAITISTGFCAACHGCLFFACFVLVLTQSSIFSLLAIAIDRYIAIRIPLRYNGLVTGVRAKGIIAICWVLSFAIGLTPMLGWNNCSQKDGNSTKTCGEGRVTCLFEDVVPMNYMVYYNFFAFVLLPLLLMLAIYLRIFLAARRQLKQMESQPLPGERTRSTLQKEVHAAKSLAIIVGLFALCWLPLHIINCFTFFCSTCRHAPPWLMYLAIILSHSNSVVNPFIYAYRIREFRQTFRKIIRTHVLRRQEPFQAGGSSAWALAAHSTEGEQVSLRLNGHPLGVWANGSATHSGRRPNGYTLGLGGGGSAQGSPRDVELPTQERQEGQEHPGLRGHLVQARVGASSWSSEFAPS
Text: as §1

The target of the next series is T3, rA1 adenosine receptor (Rattus norvegicus, UniProt P25099).
T3 sequence (P25099 1-326): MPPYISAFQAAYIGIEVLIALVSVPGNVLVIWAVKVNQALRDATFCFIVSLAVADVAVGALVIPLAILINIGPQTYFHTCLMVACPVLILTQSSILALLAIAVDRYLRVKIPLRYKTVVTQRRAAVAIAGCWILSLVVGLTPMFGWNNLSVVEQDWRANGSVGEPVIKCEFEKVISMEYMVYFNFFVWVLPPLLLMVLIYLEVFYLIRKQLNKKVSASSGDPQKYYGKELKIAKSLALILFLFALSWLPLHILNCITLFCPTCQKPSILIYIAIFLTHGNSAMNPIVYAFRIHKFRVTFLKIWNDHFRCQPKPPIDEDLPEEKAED
Put plainly: Adenosine receptor selectivity, rA1. The format is binding. Particulars: read-out: rA1 Ki ± SEM.
Text: as §1

A value given as a limit tells only on which side of the number the result lay.

For orientation: half-life means the time in which the quantity being followed falls by half. Usually Ki stands for a dissociation constant, usually derived from enzyme kinetics or from competition with a known ligand. As a reminder, the IC50 is the concentration at which inhibition is half-maximal. Regarding `CCCn1c(=O)[nH]c2nc(-c3ccc(S(=O)(=O)N4CCN(c5ccc(Cl)cc5)CC4)cc3)[nH]c2c1=O` [Compound 1], in series [1] (established arthritis), the “effect on existing inflammation in CIA” value is given as “able to reduce an existing inflammation to a normal state”. Moreover, in series [1] (started after development of clinical arthritis), the “severity of CIA (paw swelling, erythema, joint rigidity; mean visual arthritis score)” value was “significant reductions in the severity of CIA”. The “onset of EAE compared to control mice” value was “delayed onset such that there were no signs of EAE” in series [2] (15 mg/kg) and “a delay in the onset of EAE” in series [2] (listed as compound 1, 15 mg/kg). In addition, the “detectability in blood by route” value in series [3] (oral or intravenous route) is on record as “detectable only via injection”. Moreover, the oral availability result in series [3] (oral, 1% methyl cellulose in water, 0.2% Tween 80) is given as “not orally available”. Also, the half-life in series [3] (whole blood, iv, i.v. application in mouse serum, read-out: terminal half life) was in the range of 1 to 2 h. In addition, the Ki on hA3 adenosine receptor was greater than 10 µM. At hA2B adenosine receptor, the IC50 is 0.001 ± 0.0004 µM.

As for `CCCn1c(=O)[nH]c2nc(-c3ccc(S(=O)(=O)N4CCN(Cc5ccc(C(F)(F)F)cc5)CC4)cc3)[nH]c2c1=O` [Compound 2], the figures for the inhibitory constant (Ki) on rA2A adenosine receptor and at rA1 adenosine receptor were 1.54 ± 0.271 µM and 0.463 ± 0.122 µM, respectively. Moreover, at hA2B adenosine receptor, the IC50 turned out to be 0.002 ± 0.001 µM.

Consider `CCn1c(=O)[nH]c2nc(-c3ccc(S(=O)(=O)N4CCN(Cc5cccc(C(F)(F)F)c5)CC4)cc3)[nH]c2c1=O` [Compound 3], for which the inhibition constant Ki was found to be 0.499 ± 0.129 µM at rA2A adenosine receptor and 0.509 ± 0.155 µM on rA1 adenosine receptor. The IC50 on hA2B adenosine receptor was 0.002 ± 0.001 µM.

In the case of `CCCn1c(=O)[nH]c2nc(-c3ccc(S(=O)(=O)N4CCN(Cc5cccc(Cl)c5)CC4)cc3)[nH]c2c1=O` [Compound 4], the Ki on rA2A adenosine receptor was 0.799 ± 0.358 µM; on rA1 adenosine receptor it was 0.178 ± 0.038 µM. In addition, the IC50 at hA2B adenosine receptor came out at 0.002 ± 0.0001 µM.

Take `CCCn1c(=O)[nH]c2nc(-c3ccc(S(=O)(=O)N4CCN(Cc5cccc(F)c5)CC4)cc3)[nH]c2c1=O` [Compound 5]: the Ki worked out at 0.782 ± 0.236 µM on rA2A adenosine receptor and 0.111 ± 0.043 µM at rA1 adenosine receptor. Besides, on hA2B adenosine receptor, the 50% inhibitory concentration (IC50) came to 0.003 ± 0.0002 µM.

Regarding `CCn1c(=O)[nH]c2nc(-c3ccc(S(=O)(=O)N4CCN(Cc5ccc6c(c5)OCO6)CC4)cc3)[nH]c2c1=O` [Ethyl-/3,4-(Methylen-dioxy)benzyl-], the Ki at rA2A adenosine receptor was 0.332 ± 0.129 µM; at hA3 adenosine receptor, less than 10 µM; at rA1 adenosine receptor, 0.054 ± 0.005 µM. In addition, the 50% inhibitory concentration (IC50) on hA2B adenosine receptor came to 0.005 ± 0.002 µM.

In the case of `CCn1c(=O)[nH]c2nc(-c3ccc(S(=O)(=O)N4CCN(c5ccccc5)CC4)cc3)[nH]c2c1=O` [Ethyl-/Phenyl-], the results for the inhibition constant (Ki) at rA2A adenosine receptor, on hA3 adenosine receptor and on rA1 adenosine receptor were 0.514 ± 0.041 µM, greater than 10 µM and 0.142 ± 0.006 µM, respectively. Also, the half-inhibitory concentration (IC50) on hA2B adenosine receptor stood at 0.004 ± 0.003 µM.

Regarding `CCn1c(=O)[nH]c2nc(-c3ccc(S(=O)(=O)N4CCN(Cc5ccc(OC)cc5)CC4)cc3)[nH]c2c1=O` [Ethyl-/p-Methoxybenzyl-], the figures for the inhibitory constant (Ki) on rA2A adenosine receptor, on hA3 adenosine receptor and at rA1 adenosine receptor were 0.63 ± 0.305 µM, less than 10 µM and 0.129 ± 0.041 µM, respectively. Also, at hA2B adenosine receptor, the 50% inhibitory concentration (IC50) is 0.005 ± 0.001 µM.

Turning to `CCCn1c(=O)[nH]c2nc(-c3ccc(S(=O)(=O)N4CCN(CCc5ccccc5)CC4)cc3)[nH]c2c1=O` [Propyl-/2-(Phenyl)ethyl-], the inhibition constant Ki on rA2A adenosine receptor was 0.154 ± 0.0449 µM; at hA3 adenosine receptor, less than 10 µM. The half-inhibitory concentration (IC50) at hA2B adenosine receptor worked out at 0.011 ± 0.003 µM.

In the case of `CCCn1c(=O)[nH]c2nc(-c3ccc(S(=O)(=O)N4CCN(Cc5ccc6c(c5)OCO6)CC4)cc3)[nH]c2c1=O` [Propyl-/3,4-(Methylen-dioxy)benzyl-], the Ki came to 0.59 ± 0.029 µM at rA2A adenosine receptor, 4.15 µM at hA3 adenosine receptor and 0.079 ± 0.005 µM on rA1 adenosine receptor. For the same molecule, the IC50 on hA2B adenosine receptor stood at 0.024 ± 0.01 µM.

Take `CCCn1c(=O)[nH]c2nc(-c3ccc(S(=O)(=O)N4CCN(Cc5ccccc5)CC4)cc3)[nH]c2c1=O` [Propyl-/Benzyl-]: the Ki on rA2A adenosine receptor is 0.848 ± 0.433 µM; at hA3 adenosine receptor, greater than 10 µM; at rA1 adenosine receptor it was 0.151 ± 0.038 µM. Further, the 50% inhibitory concentration (IC50) on hA2B adenosine receptor was determined as 0.01 ± 0.002 µM.

As to `CCCn1c(=O)[nH]c2nc(-c3ccc(S(=O)(=O)N4CCN(Cc5cccc(C(F)(F)F)c5)CC4)cc3)[nH]c2c1=O` [Propyl-/m-Trifluormethylbenzyl-], the results for the inhibitory constant (Ki) at rA2A adenosine receptor and at rA1 adenosine receptor were 1.7 ± 0.217 µM and 0.273 ± 0.047 µM, respectively. On hA2B adenosine receptor, the IC50 amounted to 0.004 ± 0.0002 µM.

Take `CCCn1c(=O)[nH]c2nc(-c3ccc(S(=O)(=O)N4CCN(Cc5ccc(Cl)cc5)CC4)cc3)[nH]c2c1=O` [Propyl-/p-Chlorbenzyl-]: the Ki on rA2A adenosine receptor was found to be 1.73 ± 0.79 µM; on rA1 adenosine receptor, 0.386 ± 0.098 µM. Moreover, on hA2B adenosine receptor, the half-inhibitory concentration (IC50) was determined as 0.004 ± 0.001 µM.

As for `CCCn1c(=O)[nH]c2nc(-c3ccc(S(=O)(=O)N4CCN(Cc5ccc(OC)cc5)CC4)cc3)[nH]c2c1=O` [Propyl-/p-Methoxybenzyl-], the inhibition constant Ki is 1.02 ± 0.561 µM on rA2A adenosine receptor and 0.084 ± 0.019 µM at rA1 adenosine receptor. Besides, the concentration for half-maximal inhibition (IC50) at hA2B adenosine receptor stood at 0.016 ± 0.006 µM.
